Marks after values point to notes of the source that are not given here.
Experiments:
[1] = test system: Sply^05091 homozygous flies; test: Adult flight performance of Sply^05091 homozygous flies grown on sphingosine kinase inhibitor; format: in vivo, Drosophila melanogaster
[2] = test system: wild type flies; test: LCBP levels in wild type flies grown on sphingosine kinase inhibitor; format: in vivo, Drosophila melanogaster; details: wild type flies grown on D,L-threo-DHS
Description: (§1) Analysis of Drosophila sphingolipids: 100 mg of flies were homogenized in 6 ml of ice cold methanol/water 1:1 (vol:vol) with a Potter-Elvehjem homogenizer with a loose pestle followed by a tight pestle until the pestle moved smoothly. Extract was further homogenized by tip sonication for 3 times 20 sec. Extract was spun at low speed and supernatant was removed and dried down in speed vac. Extract was resuspended in 500 μl of methanol containing 0.1M ammonium hydroxide and incubated for 1 hour at 37° C. Following incubation the extract was dried down in speed vac. Extract was resuspended in 500 μl of 50% methanol containing 0.1% glacial acetic acid and applied to a C18E STRATA solid phase extraction column. C18E STRATA column was washed with 50% methanol containing 0.1% glacial acetic acid followed by a wash with 100% methanol containing 0.1% glacial acetic acid. Lipids of interest were eluted with methanol/10 mM ammonium acetate, 9:1 (vol:vol). Lipids were dried down in speed vac. and o-pthaladehyde labeled for HPLC analysis as previously described (Kim, S., Fyrst, H. and Saba, J. (2000). Genetics 156, 1519-29.).

[3] = test system: Sply^05091 homozygous flies; test: LCB/LCBP levels in Sply^05091 homozygous flies grown on sphingosine kinase inhibitor (HPLC); format: in vivo, Drosophila melanogaster
Description: as §1

[4] = test system: bst1Δ cells; test: Sphingosine sensitivity (growth) of SPL-deleted yeast; format: cell-based, S. cerevisiae
Source text: Within certain embodiments, an in vitro assay for SPL activity may be performed using cellular extracts prepared from cells that express the polypeptide of interest. […] It has been found, within the context of the present invention, that yeast cells containing deletion of the SPL gene (BST1) are suitable for use in evaluating the SPL activity of a polypeptide. bst1Δ cells can be generated from S. cerevisiae using standard techniques, such as PCR, as described herein. […] For such a test, a polypeptide is preferably expressed on a high-copy yeast vector (such as pYES2, which is available from Invitrogen) yielding more than 20 copies of the gene per cell. In general, a polypeptide has SPL activity if, when expressed using such a vector in a bst1Δ cell, a cellular extract results in a two-fold increase in substrate degradation over the level observed for an extract prepared from cells not expressing the polypeptide.
(§2) A further test for SPL activity may be based upon functional complementation in the bst1Δ strain. It has been found, within the context of the present invention, that bst1Δ cells are highly sensitive to D-erythro-sphingosine.
Functional complementation in yeast: Strains of interest were grown to saturation in liquid culture for 2-3 days. […] Plates were incubated at 30° C. for two days and assessed visually for differences in growth.

[5] = test system: wildtype cells; test: Sphingosine sensitivity (growth) of wildtype yeast; format: cell-based, S. cerevisiae; details: 10 μM sphingosine
Description: as §2
Functional complementation in yeast: Strains of interest were grown to saturation in liquid culture for 2-3 days. They were then resuspended in minimal medium, placed in the first row of a 96-well plate and diluted serially from 1:2 to 1:4000 across the plate. […] Louis, Mo.). […] At this concentration of NP40, no effects on cell viability are observed. Plates were incubated at 30° C. for two days and assessed visually for differences in growth.

[6] = Sply^05091 homozygous flies + 1 mM D,L-threo-DHS, separate experiment, mixed-age adults

SMILES	Average flight score ([1]; Sply^05091 + 1 mM D,L-threo-DHS, score upward=3, lateral=2, downward=1, flightless=0, ±s.e.m., untreated Sply^05091 0.40 ± 0.036)	Flight performance ([1]; Sply^05091 mutants grown on media supplemented with 10 μM D,L-threo-DHS, F2 progeny)	LCBP levels, % of normal levels [2] [%]	Reduction of LCBP levels ([3]; Sply^05091 homozygotes grown in the presence of sphingosine kinase inhibitor)	C14/16 LCBPs, percentage of untreated controls [3, 6] [%*]	C14/16 LCBs, percentage of untreated controls [3, 6] [%*]	Growth of bst1Δ cells ([4]; concentrations as low as 10 μM sphingosine)	Proliferation of dpl1Δ strain ([4]; media containing low concentrations of D-erythro-sphingosine)	Growth of wildtype cells [5]
CCCCCCCCCCCCCCC[C@H](O)[C@@H](N)CO [D,L-threo-DHS, D,L-threo-dihydrosphingosine]	0.62 ± 0.057	slight but significant improvement in flight performance	20	approximately 20%	81	136	–	–	–
CCCCCCCCCCCCC/C=C/[C@@H](O)[C@@H](N)CO [D-erythro-sphingosine]	–	–	–	–	–	–	completely inhibit the growth	cannot proliferate	no effect on the growth

— patent US7674580B2, “Compositions and methods for the modulation of sphingolipid metabolism and/or signaling” (priority 2002, dated 2010)
